Test [1] has as its target Human immunodeficiency virus type 1 integrase (Human immunodeficiency virus 1, UniProt Q7ZJM1). In words: Inhibition of HIV-1 integrase after 1 hr by strand transfer activity assay.
In test [2] the test system is Human immunodeficiency virus 1. Put plainly: Antiviral activity against HIV-1 infected in human TZM-bl cells after 40 to 48 hrs by beta-galactosidase assay. It is filed as functional, organism-based. As to conditions: Human immunodeficiency virus 1, TZM-bl.

A word on the IC50: it is the concentration that inhibits the measured activity by half. As usually defined, the EC50 is the concentration giving half of the maximal effect. Low readings indicate an effect from little substance, high ones a need for much substance.

Sequence of Human immunodeficiency virus type 1 integrase (Q7ZJM1 whole entry): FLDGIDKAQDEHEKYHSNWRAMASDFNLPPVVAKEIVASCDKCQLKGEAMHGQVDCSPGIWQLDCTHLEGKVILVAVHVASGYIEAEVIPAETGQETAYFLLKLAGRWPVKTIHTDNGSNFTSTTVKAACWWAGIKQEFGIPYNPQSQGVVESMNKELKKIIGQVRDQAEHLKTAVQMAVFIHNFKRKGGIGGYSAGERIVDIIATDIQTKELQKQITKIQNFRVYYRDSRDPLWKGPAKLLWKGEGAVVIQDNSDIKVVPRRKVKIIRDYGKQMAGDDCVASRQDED

`COc1c(C(=O)N2CCN(CCCNC(=O)c3cc(O)c(O)c(O)c3)CC2)nc(Cc2ccc(Cl)c(Cl)c2)n(C)c1=O`: 22.4 µM corresponded to half-maximal inhibition in test [1] (IC50).

In test [1], `COc1c(C(=O)N2CCN(CCNC(=O)c3cc(O)c(O)c(O)c3)CC2)nc(Cc2ccc(O)cc2)n(C)c1=O` had an IC50 of 0.7 µM.

In turn, `COc1c(C(=O)N2CCN(CCNC(=O)c3cc(O)c(O)c(O)c3)CC2)nc(Cc2ccccc2)n(C)c1=O` had an IC50 in test [1] of 18.6 µM.

The compound `COc1c(C(=O)N2CCN(CCCNC(=O)c3ccc(O)c(O)c3)CC2)nc(Cc2ccc(F)cc2)n(C)c1=O` displayed an IC50 in test [1] above 100 µM.

For `COc1c(C(=O)N2CCN(CCCNC(=O)c3cc(O)c(O)c(O)c3)CC2)nc(Cc2ccc(Cl)cc2)n(C)c1=O`, inhibition in test [1] was half-maximal at 2.4 µM (IC50). A half-maximal effect in test [2] (EC50) was put at 4.27 µM.

Regarding `COc1c(C(=O)N2CCN(CCNC(=O)c3cc(O)c(O)c(O)c3)CC2)nc(Cc2ccc(F)cc2)n(C)c1=O`, in test [1], half-maximal inhibition (IC50) required 2.5 µM.

On to `COc1c(C(=O)N2CCN(CCCNC(=O)c3cc(O)c(O)c(O)c3)CC2)nc(Cc2ccccc2)n(C)c1=O`, for which the IC50 in test [1] worked out at 0.9 µM. It took 1.13 µM to reach a half-maximal effect in test [2] (EC50).

In test [1], `COc1c(C(=O)N2CCN(CCCNC(=O)c3ccc(O)c(O)c3)CC2)nc(Cc2ccc(O)cc2)n(C)c1=O` gave an IC50 above 100 µM.

As to `COc1c(C(=O)N2CCN(CCCNC(=O)c3ccc(O)c(O)c3)CC2)nc(Cc2ccccc2)n(C)c1=O`, the IC50 in test [1] is above 100 µM.

As for `COc1c(C(=O)N2CCN(CCCNC(=O)c3cc(O)c(O)c(O)c3)CC2)nc(Cc2ccc(C)cc2)n(C)c1=O`, 3.5 µM corresponded to half-maximal inhibition in test [1] (IC50). The compound further showed an EC50 in test [2] of 2.76 µM.

As for `COc1c(C(=O)N2CCN(CCCNC(=O)c3cc(O)c(O)c(O)c3)CC2)nc(Cc2ccc(F)cc2)n(C)c1=O`, the half-inhibitory concentration (IC50) in test [1] was determined as 18.9 µM. The compound further displayed an EC50 in test [2] of 4.39 µM.

Source of the values: ChEMBL document CHEMBL3396962, “Design and synthesis of N-methylpyrimidone derivatives as HIV-1 integrase inhibitors” (Bioorg Med Chem, 2015).
